Results published in patent US10100056B2, “SHIP1 modulators and methods related thereto” (Aquinox Pharmaceuticals (Canada) Inc., priority 2013, dated 2018).
Marks after values point to notes of the source that are not given here.

What follows are compounds tested against T1, His-hSHIP1 enzyme (Homo sapiens, UniProt Q92835) (assay: His-hSHIP1 activity (phosphatase assay, IP4 substrate, Biomol Green)). Conditions: first approach: IP4 50 μM, test compound 0-300 μM; values marked with asterisk.
T1 construct: His
T1 sequence (Q92835 1-1189): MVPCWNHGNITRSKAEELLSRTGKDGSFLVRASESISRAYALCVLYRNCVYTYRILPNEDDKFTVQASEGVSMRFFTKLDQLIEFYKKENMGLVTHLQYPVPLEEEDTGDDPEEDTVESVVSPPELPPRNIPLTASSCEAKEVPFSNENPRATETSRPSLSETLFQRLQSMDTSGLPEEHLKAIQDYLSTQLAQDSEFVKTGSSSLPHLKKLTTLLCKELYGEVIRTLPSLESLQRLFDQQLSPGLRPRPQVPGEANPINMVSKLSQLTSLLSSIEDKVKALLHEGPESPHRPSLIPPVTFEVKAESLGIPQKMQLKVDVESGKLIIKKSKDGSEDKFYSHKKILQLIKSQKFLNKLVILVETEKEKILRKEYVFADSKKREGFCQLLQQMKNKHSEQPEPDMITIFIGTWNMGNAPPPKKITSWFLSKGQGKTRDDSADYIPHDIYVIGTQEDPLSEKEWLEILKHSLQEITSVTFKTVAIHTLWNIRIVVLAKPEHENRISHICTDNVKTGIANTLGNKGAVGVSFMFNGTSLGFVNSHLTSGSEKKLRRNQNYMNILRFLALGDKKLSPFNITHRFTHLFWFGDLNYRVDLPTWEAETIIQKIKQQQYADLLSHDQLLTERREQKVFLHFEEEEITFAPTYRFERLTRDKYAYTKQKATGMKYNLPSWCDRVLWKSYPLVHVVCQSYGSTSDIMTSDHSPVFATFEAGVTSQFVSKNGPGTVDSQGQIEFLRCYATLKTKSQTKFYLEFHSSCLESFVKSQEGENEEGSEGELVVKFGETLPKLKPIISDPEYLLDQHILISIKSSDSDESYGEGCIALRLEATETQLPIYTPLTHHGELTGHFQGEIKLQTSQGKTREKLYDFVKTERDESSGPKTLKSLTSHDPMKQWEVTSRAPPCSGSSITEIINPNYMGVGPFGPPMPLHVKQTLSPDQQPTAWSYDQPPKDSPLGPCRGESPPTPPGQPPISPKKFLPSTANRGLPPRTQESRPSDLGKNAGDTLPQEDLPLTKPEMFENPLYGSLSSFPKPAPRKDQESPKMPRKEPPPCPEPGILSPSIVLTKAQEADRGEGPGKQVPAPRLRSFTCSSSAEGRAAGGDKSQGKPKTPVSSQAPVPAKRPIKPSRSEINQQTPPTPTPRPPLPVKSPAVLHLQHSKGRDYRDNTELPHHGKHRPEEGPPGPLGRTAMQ
Type: biochemical
Parameters: key to Scoring, Approach 2 (Initial velocity Ratio): +++: higher than reference or reference - 15%; ++: reference - 16% to reference - 30%; +: reference - 31% or lower; −: inhibitor
Procedure: Test compounds are dissolved in 95% ethanol to form stock solutions. Before screening, the stock solutions are diluted with Phosphatase Assay Buffer (20 mM Tris-HCL, 10 mM MgCl2 pH 7.5, 0.02% Tween 20) to form working assay solutions that contain 10% ethanol. The assay is carried out on 96-well microtiter plates using a modified procedure of that reported by Ong et al., Blood 110, 1942-1949, 2007 and Yang et al., Org Lett 7, 1073-1076, 2005, both of which references are incorporated herein by reference in their entirety.
Data were generated by one of two variant methods. Test compounds are screened by one of two approaches described as follows. In the first approach, each reaction contains 5 μL of His-hSHIP1 enzyme (5-20 ng), 10 μL of the substrate, 1,3,4,5-inositol tetrakisphosphate (IP4; 50 μM final), 5 μL of Phosphatase Assay Buffer, and 5 µL of test compound at various concentrations in 10% ethanol (0-300 μM final). Control blanks are also prepared by replacing His-hSHIP1 enzyme, IP4, or test compounds with Phosphatase Assay Buffer. After adding the reaction components in a 96-well microtiter plate on ice, the reaction is mixed by briefly shaking the plate vigorously. The reaction is then incubated at 37° C. for 15 min with gentle shaking followed by addition of 100 μL of Biomol Green Reagent (BIOMOL, PA, USA) to terminate the reaction. The free phosphate released from IP4 by His-hSHIP1 binds to the Biomol Green Reagent, which turns the dye to green color. After incubating the mixture for 20 min at room temperature for color development, the absorbance is read with SpectraMax Plus 96-well plate reader (Molecular Devices, Sunnyvale, Calif., USA) at a wavelength of 650 nm.
In the second approach, a master mix is prepared that contains 50 μL of His-hSHIP1 enzyme (0.4-1.6 ng/μL final), 25 μL of the substrate, IP4 (25 or 250 μM final), and 50 μL of test compound in 3.3% ethanol (100 μL final). Control blanks are also prepared by replacing His-hSHIP1 enzyme, IP4, or test compounds with Phosphate Assay Buffer. […] Each reaction component is preincubated at 37° C. for 30 min before adding to a 96-well microtiter plate. The master mix is then incubated at 37° C. At time 0, 20, and 30 min, 25 μL of the master mix is removed and transferred to a new 96-well microtiter plate, to which 100 μL of Biomol Green Reagent is added to stop the reaction. After incubating the mixture for 20 min at room temperature for color development, the absorbance is read with SpectraMax Plus 96-well plate reader at a wavelength of 650 nm. Phosphate released is plotted against time to calculate the initial velocities (i.e., slope of the graph) at each IP4 concentration. The initial velocities are baseline corrected and the ratio of initial velocities (IP425/IP4250) is calculated and used to rate the test compounds.

Row | Scoring, Approach 1 (% increase relative to background) | Compound
1 | ++* (50 ≤ x < 65) | C=C1CC[C@H]2[C@H](CO)[C@@H]([C@@]3(C)CC[C@H](N)C[C@@H]3CO)CC[C@]12C [Cpd. No. 63, ((1S,2R,5S)-5-amino-2-((3aS,4R,5S,7aS)-4-(hydroxymethyl)-7a-methyl-1-methyleneoctahydro-1H-inden-5-yl)-2-methylcyclohexyl)methanol]

Same assay, conditions: second approach: ratio of initial velocities IP4 25/250 μM compared with reference compound; values without asterisk

Row | Compound | Scoring, Approach 2 (Initial velocity Ratio)
2 | C=C1CC[C@H]2[C@H](CCNCc3ccc(OC)cc3)[C@@H]([C@@]3(C)CC[C@H](O)C[C@@H]3O)CC[C@]12C [Cpd. No. 44, (1S,3S,4R)-4-((3aS,4S,5S,7aS)-4-(2-(4-methoxybenzylamino)ethyl)-7a-methyl-1-methyleneoctahydro-1H-inden-5-yl)-4-methylcyclohexane-1,3-diol] | ++
3 | C=C1CC[C@H]2[C@H](CCNCc3ccc4c(c3)OCO4)[C@@H]([C@@]3(C)CC[C@H](O)C[C@@H]3O)CC[C@]12C [Cpd. No. 45, (1S,3S,4R)-4-((3aS,4S,5S,7aS)-4-(2-(benzo[d][1,3]dioxol-5-ylmethylamino)ethyl)-7a-methyl-1-methyleneoctahydro-1H-inden-5-yl)-4-methylcyclohexane-1,3-diol] | −
4 | C=C1CC[C@H]2[C@H](CN)[C@@H]([C@@]3(C)CC[C@H](O)C[C@@H]3CN)CC[C@]12C [Cpd. No. 47, (1S,3S,4R)-3-(aminomethyl)-4-((3aS,4R,5S,7aS)-4-(aminomethyl)-7a-methyl-1-methyleneoctahydro-1H-inden-5-yl)-4-methylcyclohexanol] | +
5 | C=C1CC[C@H]2[C@H](O)[C@@H]([C@@]3(C)CC[C@H](O)C[C@@H]3CCn3cccc3)CC[C@]12C [Cpd. No. 52, (3aR,4R,5R,7aS)-5-((1S,2S,4S)-2-(2-(1H-pyrrol-1-yl)ethyl)-4-hydroxy-1-methylcyclohexyl)-7a-methyl-1-methyleneoctahydro-1H-inden-4-ol] | −
6 | C=C1CC[C@H]2[C@H](O)[C@@H]([C@@]3(C)CC[C@H](O)C[C@@H]3CCOc3cnccn3)CC[C@]12C [Cpd. No. 56, (3aR,4R,5R,7aS)-5-((1S,2S,4S)-4-hydroxy-1-methyl-2-(2-(pyrazin-2-yloxy)ethyl)cyclohexyl)-7a-methyl-1-methyleneoctahydro-1H-inden-4-ol] | −
7 | C=C1CC[C@H]2[C@H](COCc3ccccn3)[C@@H]([C@@]3(C)CC[C@H](O)C[C@@H]3CO)CC[C@]12C [Cpd. No. 61, (1S,3S,4R)-3-(hydroxymethyl)-4-methyl-4-((3aS,4R,5S,7aS)-7a-methyl-1-methylene-4-((pyridin-2-ylmethoxy)methyl)octahydro-1H-inden-5-yl)cyclohexanol] | ++
8 | CC1(C)C=CC2=C1CC[C@H]([C@@]1(C)CC[C@H](O)C[C@@H]1CO)[C@H]2CO [Cpd. No. 65, (1S,3S,4R)-3-(hydroxymethyl)-4-((4R,5S)-4-(hydroxymethyl)-1,1-dimethyl-4,5,6,7-tetrahydro-1H-inden-5-yl)-4-methylcyclohexanol] | ++
9 | CC1(C)C2=C(C[C@H]1O)[C@H](CO)[C@@H]([C@@]1(C)CC[C@H](O)C[C@@H]1CO)CC2 [Cpd. No. 66, (2R,4R,5S)-5-((1R,2S,4S)-4-hydroxy-2-(hydroxymethyl)-1-methylcyclohexyl)-4-(hydroxymethyl)-1,1-dimethyl-2,3,4,5,6,7-hexahydro-1H-inden-2-ol] | +

The next lines start with the values.

Row | Scoring, Approach 2 (Initial velocity Ratio) | Compound
10 | ++ | C=C1CC[C@H]2[C@H](COCc3ccccc3)[C@@H]([C@@]3(C)CC[C@H](O)C[C@@H]3CO)CC[C@]12C [Cpd. No. 67, (1S,3S,4R)-4-((3aS,4R,5S,7aS)-4-(benzyloxymethyl)-7a-methyl-1-methyleneoctahydro-1H-inden-5-yl)-3-(hydroxymethyl)-4-methylcyclohexanol]
11 | + | C=C1CC[C@H]2[C@H](CNC(=O)c3cccnc3)[C@@H]([C@@]3(C)CC[C@H](O)C[C@@H]3CO)CC[C@]12C [Cpd. No. 69, N-(((3aS,4R,5S,7aS)-5-((1R,2S,4S)-4-hydroxy-2-(hydroxymethyl)-1-methylcyclohexyl)-7a-methyl-1-methyleneoctahydro-1H-inden-4-yl)methyl)nicotinamide]
12 | + | C=C1CC[C@H]2[C@H](CNC(=O)NCc3ccccc3)[C@@H]([C@@]3(C)CC[C@H](O)C[C@@H]3CO)CC[C@]12C [Cpd. No. 91, 1-benzyl-3-(((3aS,4R,5S,7aS)-5-((1R,2S,4S)-4-hydroxy-2-(hydroxymethyl)-1-methylcyclohexyl)-7a-methyl-1-methyleneoctahydro-1H-inden-4-yl)methyl)urea]
13 | ++ | C=C1CC[C@H]2[C@H](CCNC(=O)c3ccc4c(c3)OCO4)[C@@H]([C@@]3(C)CC[C@H](O)C[C@@H]3O)CC[C@]12C [Cpd. No. 93, N-(2-((3aS,4S,5S,7aS)-5-((1R,2S,4S)-2,4-dihydroxy-1-methylcyclohexyl)-7a-methyl-1-methyleneoctahydro-1H-inden-4-yl)ethyl)benzo[d][1,3]dioxole-5-carboxamide]
